# According to patent US11542316B2, “S-Arrestin peptides and therapeutic uses thereof” (APITOPE INTERNATIONAL NV, priority 2017, dated 2023):
# Ends that are not written are not given here.
# How the values were obtained:
# LN and spleen cells = test: Immunogenicity of HIP-115 in DR3 mice (IFN-γ ELISA on LN and spleen cultures); type: in vivo; conditions: mice immunized with 50 μg HIP-115/CFA; LN and spleens cultured with 10 and 25 μg/ml HIP-115, 72 h
# Procedure: FIG. 1: Immunogenicity of HIP-115 in DR3 mice. Mice were immunized with 50 μg HIP-115/CFA or PBS/CFA in the tail base. After 10 days, LN and spleens were harvested and cultured with 10 μg/ml and 25 μg/ml of HIP-115. Supernatants were collected after 72 h. Cell activation was measured by IFN-γ ELISA. (A) Immunogenicity in LN. (B) Immunogenicity in spleens. CFA, Complete Freund's Adjuvant; LN, lymph nodes.
# Animal experiments were done to verify the predictions. Mice that were immunized with SAg (or fragments of it) were tested for their capacity to elicit an immune response when probed with the whole protein or parts of it. […] This response can be observed in secondary lymphoid organs, namely spleen (FIG. 1A) and lymph nodes (LN; FIG. 1B).
# [1] = tested on: SAg-specific hybridoma cells / T cell line with VAVY APC; test: Antigen Processing Independent Presentation System (APIPS) assay, fresh or fixed VAVY APC; type: cell-based, DR3 mice; conditions: DR3 hybridoma clone (IL-2, 48 h) or T cell line (IFN-γ, 24 h)
# Procedure: (§1) FIG. 2: identification of apitopes within HIP-115. (A) DR3 mice were immunized with SAg and hybridomas were generated. 5×10^4 SAg-specific hybridoma cells were cultured with 5×10^4 fresh or fixed commercial APC (VAVY) cells. T cell proliferation was measured by IL-2 ELISA on supernatants collected after 48 h. The graph represents the mean of duplicate measurements±SEM. (B) DR3 mice were immunized with HIP-115 and a T cell line was established. Ten days after immunization the LN and spleens were harvested and cultured with different concentrations of peptide (0.1-1-2.5 and 5 μg/ml); 2×10^6 cells/ml APC+1×10^6 cells/ml CD4 T cells per well. At day 7 the cells were re-stimulated with the same concentrations of peptide. On day 14 an APIPS test was done using commercial APC (VAVY). After 24 h, antigen-induced T cell activation was measured by IFN-γ ELISA and shown as IFN-γ concentration (pg/ml). The graph represents the mean of duplicate measurements±SEM. LN, lymph nodes; APC, Antigen presenting cell; APIPS, Antigen Processing Independent Presentation System.
# as §1, with “3:” for “2:”, “HIP-241125.” for “HIP-115.”, “HIP-241125+HIP-24DG” for “HIP-115”
# (§2) FIG. 5: Identification of apitopes within HIP-17GN. DR3 mice were immunized with HIP-17GN and a T cell line was established. Ten days after immunization the LN and spleens were harvested and cultured with different concentrations of peptide (0.1-1-2.5 and 5 μg/ml); 2×10^6 cells/ml APC+1×10^6 cells/ml CD4 T cells per well. At day 7 the cells were re-stimulated with the same concentrations of peptide. On day 14 an APIPS test was done using commercial APC (VAVY). After 24 h, antigen-induced T cell activation was measured by IFN-γ ELISA and shown as OD values. The graph represents the mean of triplicate measurements±SEM. LN, lymph nodes; APC, Antigen presenting cell; APIPS, Antigen Processing Independent Presentation System.
# as §2, with “6:” for “5:”, “HIP-12AK.” for “HIP-17GN.”, “HIP-12AK” for “HIP-17GN”, “IFN-γ concentration (pg/ml).” for “OD values.”, “duplicate” for “triplicate”
# Antigen-specific clones or TCL were tested for their reactivity to the peptides, presented by fixed or not fixed (fresh) cells (VAVY or MGAR) (=APCs). 5×10^4 cells from the individual clones were cultured with 10 μg/ml peptide and 5×10^4 fixed or fresh APCs. […]
# Solubility of peptides = type: physicochemical
# Procedure: The solubility of potential apitopes from S—Ag are determined by visual observations and turbidity measurement by UV spectrophotometry at 280 nm. The solubility of the peptides can be modified by adding amino acids ‘GKK’ or ‘KKK’ (or similar) on both the C- and N-terminus of the sequence. Modifications that may be suitable are described in WO2014/072958 (which is hereby incorporated by reference).
# For some of these peptides, the parental peptides were insoluble, and solubility is a critical parameter for them to work as a tolerogenic peptide. Several end-terminal modifications can be used and as example used here they were improved by addition of 3 lysines before and after the original peptide sequence (labelled as ‘-KKK’ versions).
# [2] = target: T1, MHC II molecules present on dendritic cells (DC) (Homo sapiens, UniProt P01903+P01911); test: In vivo presentation experiment, DR2tg mice; conditions: 100 μg peptide s.c., CD11c+ cells harvested after 2 hours, co-culture 48 hours
# T1 construct: from tissue; host or cells: CD11c+ dendritic cells from spleens of DR2tg mice (DRA*0101 and DRB1*1501 cDNAs under a mouse MHCII promoter, no mouse MHC class II)
# From the text: FIG. 14: In vivo presentation protocol. Mice are immunized with peptide/CFA and a T cell line is established. For this, ten days after immunization the LN and spleens are harvested and cultured with different concentrations of peptide; 2×10^6 cells/ml APC+1×10^6 cells/ml CD4^+ cells per well. At day 7 the cells are re-stimulated with fresh APC and the same concentrations of peptide. After 14 to 21 days, CD4^+ cells are isolated from these cultures by magnetic bead isolation. These CD4^+ cells are co-cultured with CD11c^+ (dendritic) cells isolated by magnetic bead isolation from spleens of mice s.c. injected with peptide 2 hours before. Control mice receive a s.c. injection of PBS. After 48 hours, supernatant is collected and cytokine response (IFN-γ) is measured. […]
# FIG. 17: In vivo presentation of HIP-9FL nested peptides in DR2 mice. […] After 48 hours, supernatant was collected and IFN-γ production was measured by ELISA. […]
# DR3tg or DR2tg mice were injected with 100 μg of peptide in 100 μl PBS subcutaneously (s.c.) in the flank. […] After 48 hours, supernatant of these co-cultures was collected and CD4^+ T cell activation was analysed by IFN-γ ELISA (R&D Systems, Abingdon, UK). In a parallel experiment, CD4^+ T cell responses towards peptide added in vitro were assessed to make sure the T cells recognize the peptides presented by the CD11c^+ cells.
# [3] = tested on: T cell line with MGAR APC; test: Antigen Processing Independent Presentation System (APIPS) assay, fresh or fixed MGAR APC; type: cell-based, DR2 mice; conditions: DR2 T cell line, IFN-γ, 24 h
# Procedure: FIG. 4: Identification of apitopes within HIP-9FL. DR2 mice were immunized with HIP-9FL-KKK and a T cell line was established. Ten days after immunization the LN and spleens were harvested and cultured with different concentrations of peptide (0.1-1-2.5 and 5 μg/ml); 2×10^6 cells/ml APCs+1×10^6 cells/ml CD4 T cells per well. At day 7 the cells were re-stimulated with the same concentrations of peptide. On day 21 an APIPS test was done using commercial APC (MGAR). After 24 h, antigen-induced T cell activation was measured by IFN-γ ELISA and shown as OD values. The graph represents the mean of duplicate measurements±SEM. LN, lymph nodes; APC, Antigen presenting cell; APIPS, Antigen Processing Independent Presentation System.
# Antigen-specific clones or TCL were tested for their reactivity to the peptides, presented by fixed or not fixed (fresh) cells (VAVY or MGAR) (=APCs). 5×10^4 cells from the individual clones were cultured with 10 μg/ml peptide and 5×10^4 fixed or fresh APCs. In the case of TCL, 5×10^4 cells were cultured with 10 μg/ml and 25 μg/ml peptide and 2.5×10^4 fixed or fresh APCs. To fixate APCs, cells were incubated with 0.5% paraformaldehyde (Merck, Darmstadt, Germany) (pH7) for 5 min at room temperature (RT). The fixation reaction was stopped by adding 0.4M glycine (Sigma-Aldrich) and washing the cells in RPMI-10% FCS. Additionally, reactivity towards human SAg protein (QBiologicals, Eurofins Amatsigroup, Ghent, Belgium) was measured to identify cryptic epitopes. After 24 h or 48 h, antigen-induced IFN-γ or IL-2 production (respectively) was measured by ELISA (R&D Systems, Abingdon, UK).
# DR3tg or DR2tg mice were immunised subcutaneously in the base of the tail with 50 μg peptide emulsified in CFA (peptide/CFA). Ten days after immunisation, draining lymph nodes (LN) and spleens were harvested. […] At day 7, TCL cells were counted and cultured with fresh APC, peptides and IL-2, all at the same concentrations as above. […]
# T1 sequence (P01903 26-254): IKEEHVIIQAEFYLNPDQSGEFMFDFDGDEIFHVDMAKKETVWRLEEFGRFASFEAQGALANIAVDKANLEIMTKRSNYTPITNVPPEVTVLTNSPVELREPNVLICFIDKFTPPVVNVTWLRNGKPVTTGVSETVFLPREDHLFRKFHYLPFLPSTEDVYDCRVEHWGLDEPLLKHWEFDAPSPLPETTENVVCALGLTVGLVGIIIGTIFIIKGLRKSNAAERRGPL
# T1 sequence (P01911 30-266): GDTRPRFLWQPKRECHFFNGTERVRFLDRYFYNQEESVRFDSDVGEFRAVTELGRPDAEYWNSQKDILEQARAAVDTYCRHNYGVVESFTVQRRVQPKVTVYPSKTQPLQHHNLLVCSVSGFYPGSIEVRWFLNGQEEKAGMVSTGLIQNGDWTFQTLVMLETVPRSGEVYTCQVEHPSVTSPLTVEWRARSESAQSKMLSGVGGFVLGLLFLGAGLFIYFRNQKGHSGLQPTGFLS
substance,measurement,setting,value
MAASGKTSKSEPNHVIFKKISRDKSVTIYLGNRDYIDHVSQV-NH2 [HIP-115],immune response against HIP-115 (IFN-γ ELISA),LN and spleen cells,develop an immune response against it
same,behaves as apitope (response to peptide presented by fresh or fixed APC),[1],behave as apitopes
"AFVEQVANVVL-NH2 [HIP-9K1, AFVEQVANVVL]",solubility,Solubility of peptides,insoluble
same,picked up and presented by MHC II on dendritic cells to peptide-specific T cells (IFN-γ production),[2],not able to cause this activation
KKKVKKIKAFVEQVANVVLYSSDYKKK-NH2 [HIP-9FL-KKK],behaves as apitope (response to peptide presented by fresh or fixed APC),[3],behave as apitopes
VKKIKAFVEQVANVVLYSSDY-NH2 [HIP-9FL],behaves as apitope (response to peptide presented by fresh or fixed APC),[3],behave as apitopes
